This note sets out measurements from patent publication US11111237B2, “Bicyclic compound and use thereof” (SK BIOPHARMACEUTICALS CO., LTD., priority 2019, dated 2021).

As a reminder, the IC50 is the point on the concentration scale where inhibition reaches its midpoint. Low values mean inhibition by little substance, high ones a need for much substance.

Structures can show the parent of a compound that is named as a salt.

Sequence of PRMT5-MEP50 enzyme complex (O14744 2-637): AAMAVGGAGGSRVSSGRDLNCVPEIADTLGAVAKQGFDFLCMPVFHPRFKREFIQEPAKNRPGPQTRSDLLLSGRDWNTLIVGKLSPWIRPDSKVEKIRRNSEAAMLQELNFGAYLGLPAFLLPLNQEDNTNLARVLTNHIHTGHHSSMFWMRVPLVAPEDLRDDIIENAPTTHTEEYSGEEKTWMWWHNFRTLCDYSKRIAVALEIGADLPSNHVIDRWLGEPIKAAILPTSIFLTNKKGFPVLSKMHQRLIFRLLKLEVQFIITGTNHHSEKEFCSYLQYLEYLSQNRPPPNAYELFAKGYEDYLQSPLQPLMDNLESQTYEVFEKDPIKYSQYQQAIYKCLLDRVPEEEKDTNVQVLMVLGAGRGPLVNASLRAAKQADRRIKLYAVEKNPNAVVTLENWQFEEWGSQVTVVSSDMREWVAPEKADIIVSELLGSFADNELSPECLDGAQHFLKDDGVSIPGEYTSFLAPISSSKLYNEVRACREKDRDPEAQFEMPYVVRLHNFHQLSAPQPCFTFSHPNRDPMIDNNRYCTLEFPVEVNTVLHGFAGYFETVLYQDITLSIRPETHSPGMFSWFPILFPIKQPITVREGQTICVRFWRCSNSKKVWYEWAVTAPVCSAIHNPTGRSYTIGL
Sequence of PRMT5-MEP50 enzyme complex (Q9BQA1 2-342 partner): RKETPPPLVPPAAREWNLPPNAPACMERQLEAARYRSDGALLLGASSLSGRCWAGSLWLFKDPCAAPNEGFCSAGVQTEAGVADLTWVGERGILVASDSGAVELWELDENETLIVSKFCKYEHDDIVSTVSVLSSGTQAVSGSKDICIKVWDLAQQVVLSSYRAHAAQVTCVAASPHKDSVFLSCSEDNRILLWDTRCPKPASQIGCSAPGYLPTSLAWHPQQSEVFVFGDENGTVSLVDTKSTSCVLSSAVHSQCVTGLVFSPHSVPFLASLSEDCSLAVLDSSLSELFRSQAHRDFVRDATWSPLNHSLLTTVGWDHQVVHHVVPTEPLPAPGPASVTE

This experiment has as its target PRMT5-MEP50 enzyme complex (Homo sapiens (Human), UniProt O14744). In words: PRMT5 enzyme activity in vitro assay (methylation of histone H4R3, ELISA absorbance at 450 nm). It is filed as biochemical. The settings on record: SAM, histone H4 peptide, room temperature 2 hours, 8 points from 10 μM to 0.128 nM. The method, boiled down: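 IC50 was derived from ELISA absorbance at 450 nm, using primary and HRP antibodies against H4R3 methylation on immobilised histone H4 peptide (residues 1-20). Compounds (10 μM to 0.128 nM, 8 points, 1:5) were incubated 2 h at room temperature with the PRMT5-MEP50 complex and SAM, diluted to 5 μg/mL and 2 μM respectively.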
For orientation: In an ELISA, binding on a coated surface is turned into a signal by an enzyme label.
With `CC1(C)CN(C[C@H](O)CN2CCc3ccccc3C2)C(=O)c2ccc(CN3CCOCC3)cc2O1` [Example 111, 4-[(2R)-3-(3,4-dihydro-1H-isoquinolin-2-yl)-2-hydroxy-propyl]-2,2-dimethyl-8-(morpholinomethyl)-3H-1,4-benzoxazepin-5-one], the IC50 lay within 100 to 1000 nM.

As to `CC1(C)CN(C[C@H](O)CN2CCc3ccccc3C2)C(=O)c2ccc(OCc3ccncc3)cc2O1` [Example 113, 4-[(2R)-3-(3,4-dihydro-1H-isoquinolin-2-yl)-2-hydroxy-propyl]-2,2-dimethyl-8-(4-pyridylmethoxy)-3H-1,4-benzoxazepin-5-one], the IC50 was in the range of 100 to 1000 nM.

`CC(=O)N1CC(Oc2ccc3c(c2)OC(C)(C)CN(C[C@H](O)CN2CCc4ccccc4C2)C3=O)C1` [Example 114, 8-(1-acetylazetidin-3-yl)oxy-4-[(2R)-3-(3,4-dihydro-1H-isoquinolin-2-yl)-2-hydroxy-propyl]-2,2-dimethyl-3H-1,4-benzoxazepin-5-one] came in with an IC50 of 1 to 100 nM.

`CN1CCN(C[C@H](O)CN2CCc3ccccc3C2)C(=O)c2ccc(CN3CCOCC3)cc21` [Example 115, 4-[(2R)-3-(3,4-dihydro-1H-isoquinolin-2-yl)-2-hydroxy-propyl]-1-methyl-8-(morpholinomethyl)-2,3-dihydro-1,4-benzodiazepin-5-one] displayed an IC50 of 1 to 100 nM.

The compound `CN1CCN(C[C@H](O)CN2CCc3ccccc3C2)C(=O)c2ccc(CCC(F)(F)F)cc21` [Example 116, 4-[(2R)-3-(3,4-dihydro-1H-isoquinolin-2-yl)-2-hydroxy-propyl]-1-methyl-8-(3,3,3-trifluoropropyl)-2,3-dihydro-1,4-benzodiazepin-5-one] yielded an IC50 of 100 to 1000 nM.

For `CN1CCN(C[C@H](O)CN2CCc3ccccc3C2)C(=O)c2ccc(CC3CCCCC3)cc21` [Example 117, 8-(cyclohexylmethyl)-4-[(2R)-3-(3,4-dihydro-1H-isoquinolin-2-yl)-2-hydroxy-propyl]-1-methyl-2,3-dihydro-1,4-benzodiazepin-5-one], the half-inhibitory concentration (IC50) was 100 to 1000 nM.

`CN1CCN(C[C@H](O)CN2CCc3ccccc3C2)C(=O)c2ccc(C3=CCCCC3)cc21` [Example 118, 8-(cyclohexen-1-yl)-4-[(2R)-3-(3,4-dihydro-1H-isoquinolin-2-yl)-2-hydroxy-propyl]-1-methyl-2,3-dihydro-1,4-benzodiazepin-5-one]: the IC50 was in the range of 1 to 100 nM.

`CN1CCN(C[C@H](O)CN2CCc3ccccc3C2)C(=O)c2ccc(C3=CCC(C(F)(F)F)CC3)cc21` (stereo partly drawn) [Example 119, 4-[(2R)-3-(3,4-dihydro-1H-isoquinolin-2-yl)-2-hydroxy-propyl]-1-methyl-8-[4-(trifluoromethyl)cyclohexen-1-yl]-2,3-dihydro-1,4-benzodiazepin-5-one] returned a half-maximal inhibitory concentration (IC50) of 100 to 1000 nM.

The compound `CN1CCN(C[C@H](O)CN2CCc3ccccc3C2)C(=O)c2ccc(C3=CCN(C(=O)OC(C)(C)C)CC3)cc21` [Example 120, tert-butyl 4-[4-[(2R)-3-(3,4-dihydro-1H-isoquinolin-2-yl)-2-hydroxy-propyl]-1-methyl-5-oxo-2,3-dihydro-1,4-benzodiazepin-8-yl]-3,6-dihydro-2H-pyridine-1-carboxylate] had an IC50 of 1 to 100 nM.

As to `CC(=O)N1CCC(Oc2ccc3c(c2)N(C)CCN(C[C@H](O)CN2CCc4ccccc4C2)C3=O)CC1` [Example 121, 8-[(1-acetyl-4-piperidyl)oxy]-4-[(2R)-3-(3,4-dihydro-1H-isoquinolin-2-yl)-2-hydroxy-propyl]-1-methyl-2,3-dihydro-1,4-benzodiazepin-5-one], the concentration for half-maximal inhibition (IC50) fell in the range of 100 to 1000 nM.

Regarding `CC(=O)N1CC(Oc2ccc3c(c2)N(C)CCN(C[C@H](O)CN2CCc4ccccc4C2)C3=O)C1` [Example 122, 8-(1-acetylazetidin-3-yl)oxy-4-[(2R)-3-(3,4-dihydro-1H-isoquinolin-2-yl)-2-hydroxy-propyl]-1-methyl-2,3-dihydro-1,4-benzodiazepin-5-one], the IC50 was 100 to 1000 nM.

Compound `CC(=O)N1CC[C@@H](Oc2ccc3c(c2)N(C)CCN(C[C@H](O)CN2CCc4ccccc4C2)C3=O)C1` [Example 123, 8-[(3R)-1-acetylpyrrolidin-3-yl]oxy-4-[(2R)-3-(3,4-dihydro-1H-isoquinolin-2-yl)-2-hydroxy-propyl]-1-methyl-2,3-dihydro-1,4-benzodiazepin-5-one] showed an IC50 of 100 to 1000 nM.

As for `CC(=O)N1CC[C@H](Oc2ccc3c(c2)N(C)CCN(C[C@H](O)CN2CCc4ccccc4C2)C3=O)C1` [Example 124, 8-[(3S)-1-acetylpyrrolidin-3-yl]oxy-4-[(2R)-3-(3,4-dihydro-1H-isoquinolin-2-yl)-2-hydroxy-propyl]-1-methyl-2,3-dihydro-1,4-benzodiazepin-5-one], the concentration for half-maximal inhibition (IC50) is 100 to 1000 nM.

`CN1CCC(Oc2ccc3c(c2)N(C)CCN(C[C@H](O)CN2CCc4ccccc4C2)C3=O)CC1` [Example 125, 4-[(2R)-3-(3,4-dihydro-1H-isoquinolin-2-yl)-2-hydroxy-propyl]-1-methyl-8-[(1-methyl-4-piperidyl)oxy]-2,3-dihydro-1,4-benzodiazepin-5-one]: the IC50 is 100 to 1000 nM.

`CCN1CCC(Oc2ccc3c(c2)N(C)CCN(C[C@H](O)CN2CCc4ccccc4C2)C3=O)CC1` [Example 126, 4-[(2R)-3-(3,4-dihydro-1H-isoquinolin-2-yl)-2-hydroxy-propyl]-8-[(1-ethyl-4-piperidyl)oxy]-1-methyl-2,3-dihydro-1,4-benzodiazepin-5-one] yielded an IC50 of 100 to 1000 nM.

Compound `CN1CCN(C[C@H](O)CN2CCc3ccccc3C2)C(=O)c2ccc(OC3CCN(C4CCC4)CC3)cc21` [Example 127, 8-[(1-cyclobutyl-4-piperidyl)oxy]-4-[(2R)-3-(3,4-dihydro-1H-isoquinolin-2-yl)-2-hydroxy-propyl]-1-methyl-2,3-dihydro-1,4-benzodiazepin-5-one] displayed a half-maximal inhibitory concentration (IC50) of 1 to 100 nM.

For `CN1CCN(C[C@H](O)CN2CCc3ccccc3C2)C(=O)c2ccc(OC3CCN(C4CCOC4)CC3)cc21` (stereo partly drawn) [Example 128, 4-[(2R)-3-(3,4-dihydro-1H-isoquinolin-2-yl)-2-hydroxy-propyl]-1-methyl-8-[(1-tetrahydrofuran-3-yl-4-piperidyl)oxy]-2,3-dihydro-1,4-benzodiazepin-5-one], the half-inhibitory concentration (IC50) lay in the range of 100 to 1000 nM.

For `CN1CCN(C[C@H](O)CN2CCc3ccccc3C2)C(=O)c2ccc(OC3CCN(C4COC4)CC3)cc21` [Example 129, 4-[(2R)-3-(3,4-dihydro-1H-isoquinolin-2-yl)-2-hydroxy-propyl]-1-methyl-8-[[1-(oxetan-3-yl)-4-piperidyl]oxy]-2,3-dihydro-1,4-benzodiazepin-5-one], the IC50 fell in the range of 100 to 1000 nM.

With `CN1CCCC(Oc2ccc3c(c2)N(C)CCN(C[C@H](O)CN2CCc4ccccc4C2)C3=O)C1` (stereo partly drawn) [Example 130, 4-[(2R)-3-(3,4-dihydro-1H-isoquinolin-2-yl)-2-hydroxy-propyl]-1-methyl-8-[(1-methyl-3-piperidyl)oxy]-2,3-dihydro-1,4-benzodiazepin-5-one], the IC50 was 100 to 1000 nM.

Compound `CN1CCC(COc2ccc3c(c2)N(C)CCN(C[C@H](O)CN2CCc4ccccc4C2)C3=O)C1` (stereo partly drawn) [Example 131, 4-[(2R)-3-(3,4-dihydro-1H-isoquinolin-2-yl)-2-hydroxy-propyl]-1-methyl-8-[(1-methylpyrrolidin-3-yl)methoxy]-2,3-dihydro-1,4-benzodiazepin-5-one] came in with an IC50 of 100 to 1000 nM.

`CN1CCC(Oc2ccc3c(c2)N(C)CCN(C[C@H](O)CN2CCc4ccccc4C2)C3=O)C1` (stereo partly drawn) [Example 132, 4-[(2R)-3-(3,4-dihydro-1H-isoquinolin-2-yl)-2-hydroxy-propyl]-1-methyl-8-(1-methylpyrrolidin-3-yl)oxy-2,3-dihydro-1,4-benzodiazepin-5-one] yielded a 50% inhibitory concentration (IC50) of 100 to 1000 nM.

Take `CN1CCCC(COc2ccc3c(c2)N(C)CCN(C[C@H](O)CN2CCc4ccccc4C2)C3=O)C1` (stereo partly drawn) [Example 133, 4-[(2R)-3-(3,4-dihydro-1H-isoquinolin-2-yl)-2-hydroxy-propyl]-1-methyl-8-[(1-methyl-3-piperidyl)methoxy]-2,3-dihydro-1,4-benzodiazepin-5-one]: the IC50 lay within 1 to 100 nM.

`CN1CCN(C[C@H](O)CN2CCc3ccccc3C2)C(=O)c2ccc(OCc3ccncc3F)cc21` [Example 134, 4-[(2R)-3-(3,4-dihydro-1H-isoquinolin-2-yl)-2-hydroxy-propyl]-8-[(3-fluoro-4-pyridyl)methoxy]-1-methyl-2,3-dihydro-1,4-benzodiazepin-5-one] displayed an IC50 of 1 to 100 nM.

As for `CN1CCN(C[C@H](O)CN2CCc3ccccc3C2)C(=O)c2ccc(OC3CCNCC3F)cc21` (stereo partly drawn) [Example 135, 4-[(2R)-3-(3,4-dihydro-1H-isoquinolin-2-yl)-2-hydroxy-propyl]-8-[(3-fluoro-4-piperidyl)oxy]-1-methyl-2,3-dihydro-1,4-benzodiazepin-5-one; dihydrochloride], the half-maximal inhibitory concentration (IC50) lay in the range of 100 to 1000 nM.

Turning to `CCN1CCC(Oc2ccc3c(c2)N(C)CCN(C[C@H](O)CN2CCc4ccccc4C2)C3=O)C(F)C1` (stereo partly drawn) [Example 136, 4-[(2R)-3-(3,4-dihydro-1H-isoquinolin-2-yl)-2-hydroxy-propyl]-8-[(1-ethyl-3-fluoro-4-piperidyl)oxy]-1-methyl-2,3-dihydro-1,4-benzodiazepin-5-one], the IC50 lay in the range of 100 to 1000 nM.

`CCN1C2CCC1CC(Oc1ccc3c(c1)N(C)CCN(C[C@H](O)CN1CCc4ccccc4C1)C3=O)C2` (stereo partly drawn) [Example 137, 4-[(2R)-3-(3,4-dihydro-1H-isoquinolin-2-yl)-2-hydroxy-propyl]-8-[(8-ethyl-8-azabicyclo[3.2.1]octan-3-yl)oxy]-1-methyl-2,3-dihydro-1,4-benzodiazepin-5-one] returned an IC50 of 1 to 100 nM.

The compound `CC1CC(Oc2ccc3c(c2)N(C)CCN(C[C@H](O)CN2CCc4ccccc4C2)C3=O)CCN1` (stereo partly drawn) [Example 138, 4-[(2R)-3-(3,4-dihydro-1H-isoquinolin-2-yl)-2-hydroxy-propyl]-1-methyl-8-[(2-methyl-4-piperidyl)oxy]-2,3-dihydro-1,4-benzodiazepin-5-one; dihydrochloride] displayed a half-maximal inhibitory concentration (IC50) of 100 to 1000 nM.
